system: Escherichia coli; test: Antibacterial activity against multidrug-resistant Escherichia coli CE5556 expressing CTX-M-15 assessed as reduction in microbial growth incubated for 24 hrs by microdilution assay; format: functional; conditions: not given

Row | SMILES | MIC
1 | CCCCC/C=C\CCOP(=O)(CCN(CCCN)CCCN)OCCCOP(=O)(CCN(CCCN)CCCN)OCC/C=C\CCCCC.Cl.Cl.Cl.Cl.Cl.Cl (stereo unspecified) | 4 µg/mL
2 | CCCCCCCCOP(=O)(CCN(CCN)CCN)OCCCCCCCCOP(=O)(CCN(CCN)CCN)OCCCCCCCC.Cl.Cl.Cl.Cl.Cl.Cl (stereo unspecified) | 1 µg/mL

system: Pseudomonas aeruginosa; test: Antibacterial activity against multidrug-resistant Pseudomonas aeruginosa assessed as reduction in microbial growth incubated for 24 hrs by microdilution assay; format: functional; conditions: not given

Row | SMILES | MIC
3 | CCCCC/C=C\CCOP(=O)(CCN(CCCN)CCCN)OCCCOP(=O)(CCN(CCCN)CCCN)OCC/C=C\CCCCC.Cl.Cl.Cl.Cl.Cl.Cl (stereo unspecified) | 4 µg/mL
4 | CCCCCCCCOP(=O)(CCN(CCN)CCN)OCCCCCCCCOP(=O)(CCN(CCN)CCN)OCCCCCCCC.Cl.Cl.Cl.Cl.Cl.Cl (stereo unspecified) | 1 µg/mL

system: Staphylococcus aureus; test: Antibacterial activity against Staphylococcus aureus ATCC 29213 = CCM 4223 assessed as inhibition of bacterial growth incubated for 24 hrs in presence of BSA by microdilution assay; format: functional; conditions: not given

Row | SMILES | MIC
5 | CCCCC/C=C\CCOP(=O)(CCN(CCCN)CCCN)OCCCOP(=O)(CCN(CCCN)CCCN)OCC/C=C\CCCCC.Cl.Cl.Cl.Cl.Cl.Cl (stereo unspecified) | 4 µg/mL
6 | CCCCCCCCOP(=O)(CCN(CCN)CCN)OCCCCCCCCOP(=O)(CCN(CCN)CCN)OCCCCCCCC.Cl.Cl.Cl.Cl.Cl.Cl (stereo unspecified) | 0.2 µg/mL

system: Enterococcus faecium; test: Antibacterial activity against vancomycin resistant Enterococcus faecium 419/ANA assessed as reduction in microbial growth incubated for 24 hrs by microdilution assay; format: functional; conditions: not given

Row | SMILES | MIC
7 | CCCCC/C=C\CCOP(=O)(CCN(CCCN)CCCN)OCCCOP(=O)(CCN(CCCN)CCCN)OCC/C=C\CCCCC.Cl.Cl.Cl.Cl.Cl.Cl (stereo unspecified) | 64 µg/mL
8 | CCCCCCCCOP(=O)(CCN(CCN)CCN)OCCCCCCCCOP(=O)(CCN(CCN)CCN)OCCCCCCCC.Cl.Cl.Cl.Cl.Cl.Cl (stereo unspecified) | 2 µg/mL

system: Escherichia coli; test: Antibacterial activity against Escherichia coli ATCC 25922 = CCM 3954 assessed as inhibition of bacterial growth incubated for 24 hrs by microdilution assay; format: functional; conditions: not given

Row | SMILES | MIC
9 | CCCCC/C=C\CCOP(=O)(CCN(CCCN)CCCN)OCCCOP(=O)(CCN(CCCN)CCCN)OCC/C=C\CCCCC.Cl.Cl.Cl.Cl.Cl.Cl (stereo unspecified) | 2 µg/mL
10 | CCCCCCCCOP(=O)(CCN(CCN)CCN)OCCCCCCCCOP(=O)(CCN(CCN)CCN)OCCCCCCCC.Cl.Cl.Cl.Cl.Cl.Cl (stereo unspecified) | 64 µg/mL

system: Pseudomonas aeruginosa; test: Antibacterial activity against Pseudomonas aeruginosa ATCC 27853 = CCM 3955 assessed as inhibition of bacterial growth incubated for 24 hrs by microdilution assay; format: functional; conditions: not given

Row | SMILES | MIC
11 | CCCCC/C=C\CCOP(=O)(CCN(CCCN)CCCN)OCCCOP(=O)(CCN(CCCN)CCCN)OCC/C=C\CCCCC.Cl.Cl.Cl.Cl.Cl.Cl (stereo unspecified) | 8 µg/mL
12 | CCCCCCCCOP(=O)(CCN(CCN)CCN)OCCCCCCCCOP(=O)(CCN(CCN)CCN)OCCCCCCCC.Cl.Cl.Cl.Cl.Cl.Cl (stereo unspecified) | 1 µg/mL

system: Staphylococcus aureus; test: Antibacterial activity against Staphylococcus aureus ATCC 29213 = CCM 4223 assessed as inhibition of bacterial growth incubated for 24 hrs by microdilution assay; format: functional; conditions: not given

Row | SMILES | MIC
13 | CCCCC/C=C\CCOP(=O)(CCN(CCCN)CCCN)OCCCOP(=O)(CCN(CCCN)CCCN)OCC/C=C\CCCCC.Cl.Cl.Cl.Cl.Cl.Cl (stereo unspecified) | 2 µg/mL
14 | CCCCCCCCOP(=O)(CCN(CCN)CCN)OCCCCCCCCOP(=O)(CCN(CCN)CCN)OCCCCCCCC.Cl.Cl.Cl.Cl.Cl.Cl (stereo unspecified) | 0.5 µg/mL

system: not listed separately; test: Gradient chromatographic hydrophobicity index of the compound at pH 3.7 by HPLC analysis; format: ADME; conditions: not given

Row | SMILES | CHI
15 | CCCCC/C=C\CCOP(=O)(CCN(CCCN)CCCN)OCCCOP(=O)(CCN(CCCN)CCCN)OCC/C=C\CCCCC.Cl.Cl.Cl.Cl.Cl.Cl (stereo unspecified) | 36.2
16 | CCCCCCCCOP(=O)(CCN(CCN)CCN)OCCCCCCCCOP(=O)(CCN(CCN)CCN)OCCCCCCCC.Cl.Cl.Cl.Cl.Cl.Cl (stereo unspecified) | 45.2

system: Staphylococcus epidermidis; test: Antibacterial activity against Staphylococcus epidermidis CCM 7221 assessed as inhibition of bacterial growth incubated for 24 hrs by microdilution assay; format: functional; conditions: not given

Row | SMILES | MIC
17 | CCCCC/C=C\CCOP(=O)(CCN(CCCN)CCCN)OCCCOP(=O)(CCN(CCCN)CCCN)OCC/C=C\CCCCC.Cl.Cl.Cl.Cl.Cl.Cl (stereo unspecified) | 2 µg/mL
18 | CCCCCCCCOP(=O)(CCN(CCN)CCN)OCCCCCCCCOP(=O)(CCN(CCN)CCN)OCCCCCCCC.Cl.Cl.Cl.Cl.Cl.Cl (stereo unspecified) | 0.2 µg/mL

system: Staphylococcus aureus; test: Antibacterial activity against methicillin resistant Staphylococcus aureus 4591/A assessed as reduction in microbial growth incubated for 24 hrs by microdilution assay; format: functional; conditions: not given

Row | SMILES | MIC
19 | CCCCC/C=C\CCOP(=O)(CCN(CCCN)CCCN)OCCCOP(=O)(CCN(CCCN)CCCN)OCC/C=C\CCCCC.Cl.Cl.Cl.Cl.Cl.Cl (stereo unspecified) | 2 µg/mL
20 | CCCCCCCCOP(=O)(CCN(CCN)CCN)OCCCCCCCCOP(=O)(CCN(CCN)CCN)OCCCCCCCC.Cl.Cl.Cl.Cl.Cl.Cl (stereo unspecified) | 3 µg/mL

system: Escherichia coli; test: Antibacterial activity against Escherichia coli ATCC 25922 = CCM 3954 assessed as inhibition of bacterial growth incubated for 24 hrs in presence of BSA by microdilution assay; format: functional; conditions: not given

Row | SMILES | MIC
21 | CCCCC/C=C\CCOP(=O)(CCN(CCCN)CCCN)OCCCOP(=O)(CCN(CCCN)CCCN)OCC/C=C\CCCCC.Cl.Cl.Cl.Cl.Cl.Cl (stereo unspecified) | 4 µg/mL
22 | CCCCCCCCOP(=O)(CCN(CCN)CCN)OCCCCCCCCOP(=O)(CCN(CCN)CCN)OCCCCCCCC.Cl.Cl.Cl.Cl.Cl.Cl (stereo unspecified) | 5 µg/mL

system: Enterococcus faecalis; test: Antibacterial activity against Enterococcus faecalis ATCC 29212 = CCM 4224 assessed as inhibition of bacterial growth incubated for 24 hrs by microdilution assay; format: functional; conditions: not given

Row | SMILES | MIC
23 | CCCCC/C=C\CCOP(=O)(CCN(CCCN)CCCN)OCCCOP(=O)(CCN(CCCN)CCCN)OCC/C=C\CCCCC.Cl.Cl.Cl.Cl.Cl.Cl (stereo unspecified) | 8 µg/mL
24 | CCCCCCCCOP(=O)(CCN(CCN)CCN)OCCCCCCCCOP(=O)(CCN(CCN)CCN)OCCCCCCCC.Cl.Cl.Cl.Cl.Cl.Cl (stereo unspecified) | 1 µg/mL

system: not listed separately; test: Hemolytic activity in human RBC assessed as haemoglobin release measured after 3 hr; format: toxicity, cell-based, Erythrocyte; conditions: red blood cells (erythrocytes)

Row | SMILES | HC50 at 3 h
25 | CCCCC/C=C\CCOP(=O)(CCN(CCCN)CCCN)OCCCOP(=O)(CCN(CCCN)CCCN)OCC/C=C\CCCCC.Cl.Cl.Cl.Cl.Cl.Cl (stereo unspecified) | > 500 µg/mL
26 | CCCCCCCCOP(=O)(CCN(CCN)CCN)OCCCCCCCCOP(=O)(CCN(CCN)CCN)OCCCCCCCC.Cl.Cl.Cl.Cl.Cl.Cl (stereo unspecified) | 19 µg/mL

From ChEMBL document CHEMBL5120927, “LEGO-Lipophosphonoxins: A Novel Approach in Designing Membrane Targeting Antimicrobials” (J Med Chem, 2022)
